In test [1] the target is T1, Caspase-3 (Homo sapiens, UniProt P42574).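 Also: Dose-response selectivity test against caspase-3 for candidate inhibitors of sentrin-specific proteases (SENPs).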
T1 sequence (P42574 whole entry): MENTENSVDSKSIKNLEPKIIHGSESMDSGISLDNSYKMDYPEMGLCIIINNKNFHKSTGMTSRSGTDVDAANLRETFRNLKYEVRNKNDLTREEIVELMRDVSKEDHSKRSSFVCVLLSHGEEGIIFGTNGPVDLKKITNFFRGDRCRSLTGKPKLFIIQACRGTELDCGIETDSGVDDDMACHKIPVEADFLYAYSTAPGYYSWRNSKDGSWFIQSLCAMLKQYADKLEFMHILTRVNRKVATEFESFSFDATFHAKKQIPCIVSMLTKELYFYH
In kind it is functional.

For test [2], the system named is Vero. The test is described as follows: Vero cell cytotoxicity, cytotoxicity control for flavivirus capping enzyme inhibitors (AID 588742). The settings on record: Chlorocebus sabaeus. In kind it is functional.
Test [3] concerns the target T2, Hexokinase HKDC1 (Homo sapiens, UniProt Q2TB90).
T2 sequence (Q2TB90 whole entry): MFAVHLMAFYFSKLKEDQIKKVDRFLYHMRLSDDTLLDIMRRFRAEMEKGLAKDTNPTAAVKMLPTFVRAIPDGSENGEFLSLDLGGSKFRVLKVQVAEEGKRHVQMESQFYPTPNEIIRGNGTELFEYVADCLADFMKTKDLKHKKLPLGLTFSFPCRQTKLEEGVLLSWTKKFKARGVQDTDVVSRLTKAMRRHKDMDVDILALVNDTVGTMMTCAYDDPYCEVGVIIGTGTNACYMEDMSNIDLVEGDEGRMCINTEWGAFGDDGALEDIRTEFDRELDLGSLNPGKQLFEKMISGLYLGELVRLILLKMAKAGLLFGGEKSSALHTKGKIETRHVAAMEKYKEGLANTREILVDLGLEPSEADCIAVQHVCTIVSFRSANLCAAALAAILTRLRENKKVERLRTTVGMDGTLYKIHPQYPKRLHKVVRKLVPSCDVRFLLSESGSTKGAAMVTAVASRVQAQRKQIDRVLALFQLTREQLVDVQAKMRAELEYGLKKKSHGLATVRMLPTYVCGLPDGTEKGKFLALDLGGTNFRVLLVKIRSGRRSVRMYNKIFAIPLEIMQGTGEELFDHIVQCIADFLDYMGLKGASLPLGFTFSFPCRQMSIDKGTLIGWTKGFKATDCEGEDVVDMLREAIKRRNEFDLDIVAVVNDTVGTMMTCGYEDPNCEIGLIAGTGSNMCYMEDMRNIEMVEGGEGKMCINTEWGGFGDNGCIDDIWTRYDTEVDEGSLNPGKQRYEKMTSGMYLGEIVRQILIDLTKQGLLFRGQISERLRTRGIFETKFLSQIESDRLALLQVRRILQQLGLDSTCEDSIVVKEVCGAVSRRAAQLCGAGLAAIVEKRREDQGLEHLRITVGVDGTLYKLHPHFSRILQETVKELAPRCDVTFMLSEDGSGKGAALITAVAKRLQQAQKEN
Nature of the test: HKDC1 hexokinase inhibitors, dose response, biochemical, W721R variant (AID 504729). In kind it is functional.

Test [4] concerns the target 1-phosphatidylinositol 4,5-bisphosphate phosphodiesterase gamma-1 (Homo sapiens, UniProt P19174). Nature of the test: Counterscreen for inhibitors of phospholipase C isozymes (PLC-B3): Fluorescence-based biochemical high throughput dose response assay to identify inhibitors of phospholipase C isozymes (PLC-gamma1). On the technique in general: Counterscreens check selectivity or assay interference.

Test [5] has as its target T3, Cysteine protease ATG4B (Homo sapiens, UniProt Q9Y4P1).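 Also: Fluorescence-based dose-response confirmation assay measuring inhibition of ATG4B activity.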
T3 sequence (Q9Y4P1 whole entry): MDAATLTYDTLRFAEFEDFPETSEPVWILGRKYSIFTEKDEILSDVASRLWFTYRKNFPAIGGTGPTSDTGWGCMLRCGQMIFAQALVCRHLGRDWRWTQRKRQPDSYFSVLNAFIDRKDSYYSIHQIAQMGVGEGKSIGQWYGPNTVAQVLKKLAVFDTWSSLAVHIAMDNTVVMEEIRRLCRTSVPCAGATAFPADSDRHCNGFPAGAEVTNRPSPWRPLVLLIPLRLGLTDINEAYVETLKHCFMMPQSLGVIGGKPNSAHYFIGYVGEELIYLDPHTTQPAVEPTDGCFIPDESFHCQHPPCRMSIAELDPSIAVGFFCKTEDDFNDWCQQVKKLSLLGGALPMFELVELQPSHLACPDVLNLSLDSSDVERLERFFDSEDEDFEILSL
In kind it is functional.

Test [6] concerns BJ. Nature of the test: cytotoxicity toward BJ-TERT fibroblasts, dose response, cell-based, RAS-independent, luminescence (AID 1933). In kind it is functional. The settings on record: Homo sapiens.
Test [7] concerns BJ. Nature of the test: cytotoxicity toward BJ-TERT-LT-ST fibroblasts, dose response, cell-based, RAS-independent, luminescence (AID 1935).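 Also: BJ fibroblasts immortalized with TERT plus LT and ST oncogenes.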 Conditions: Homo sapiens. Format: functional.
A short description of test [8]: HepG2 cell cytotoxicity, dose response, cytotoxicity control for non-replicating M. tuberculosis project (AID 489018). Format: functional. Conditions: Mycobacterium tuberculosis.
Test [9] has as its target T4, Protein RecA (Mycobacterium tuberculosis, UniProt P9WHJ3).
T4 sequence (P9WHJ3 whole entry): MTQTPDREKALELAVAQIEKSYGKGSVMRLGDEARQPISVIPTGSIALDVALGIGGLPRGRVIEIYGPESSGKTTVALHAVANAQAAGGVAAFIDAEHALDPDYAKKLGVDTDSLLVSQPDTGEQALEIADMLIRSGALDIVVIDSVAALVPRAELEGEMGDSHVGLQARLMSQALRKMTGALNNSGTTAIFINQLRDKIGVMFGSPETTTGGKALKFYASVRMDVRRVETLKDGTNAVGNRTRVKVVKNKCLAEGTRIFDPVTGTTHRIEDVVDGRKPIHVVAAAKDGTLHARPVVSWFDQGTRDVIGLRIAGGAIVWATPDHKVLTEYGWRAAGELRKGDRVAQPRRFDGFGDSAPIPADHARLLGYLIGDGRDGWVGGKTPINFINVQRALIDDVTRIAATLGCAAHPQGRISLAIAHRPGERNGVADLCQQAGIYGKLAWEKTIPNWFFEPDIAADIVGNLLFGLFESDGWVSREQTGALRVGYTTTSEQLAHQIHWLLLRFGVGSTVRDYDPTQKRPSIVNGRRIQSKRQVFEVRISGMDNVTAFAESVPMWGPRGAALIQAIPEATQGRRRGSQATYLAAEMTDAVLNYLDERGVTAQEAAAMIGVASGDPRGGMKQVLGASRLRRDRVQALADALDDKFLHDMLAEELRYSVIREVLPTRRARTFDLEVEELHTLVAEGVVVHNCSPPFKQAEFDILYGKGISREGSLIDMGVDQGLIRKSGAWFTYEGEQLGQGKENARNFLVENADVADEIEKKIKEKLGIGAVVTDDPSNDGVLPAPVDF
Nature of the test: Fluorescence Cell-Free Homogeneous Dose Retest to Identify Inhibitors of RecA-Intein Splicing Activity. [Related pubchem assays (depositor defined):AID2097, AID2223, AID489010, AID492950]. Format: functional.

A short description of test [10]: cytotoxicity toward NIH3T3 fibroblasts, dose response, counter-screen, cell-based, ATP luminescence, mouse fibroblasts (AID 2010).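 Also: cells exposed to compound for about 90 hours before reading.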 In kind it is functional.

The structures appear in SMILES notation. Calls of active or inactive are those of the source.

Chain of 1-phosphatidylinositol 4,5-bisphosphate phosphodiesterase gamma-1 (P19174 whole entry): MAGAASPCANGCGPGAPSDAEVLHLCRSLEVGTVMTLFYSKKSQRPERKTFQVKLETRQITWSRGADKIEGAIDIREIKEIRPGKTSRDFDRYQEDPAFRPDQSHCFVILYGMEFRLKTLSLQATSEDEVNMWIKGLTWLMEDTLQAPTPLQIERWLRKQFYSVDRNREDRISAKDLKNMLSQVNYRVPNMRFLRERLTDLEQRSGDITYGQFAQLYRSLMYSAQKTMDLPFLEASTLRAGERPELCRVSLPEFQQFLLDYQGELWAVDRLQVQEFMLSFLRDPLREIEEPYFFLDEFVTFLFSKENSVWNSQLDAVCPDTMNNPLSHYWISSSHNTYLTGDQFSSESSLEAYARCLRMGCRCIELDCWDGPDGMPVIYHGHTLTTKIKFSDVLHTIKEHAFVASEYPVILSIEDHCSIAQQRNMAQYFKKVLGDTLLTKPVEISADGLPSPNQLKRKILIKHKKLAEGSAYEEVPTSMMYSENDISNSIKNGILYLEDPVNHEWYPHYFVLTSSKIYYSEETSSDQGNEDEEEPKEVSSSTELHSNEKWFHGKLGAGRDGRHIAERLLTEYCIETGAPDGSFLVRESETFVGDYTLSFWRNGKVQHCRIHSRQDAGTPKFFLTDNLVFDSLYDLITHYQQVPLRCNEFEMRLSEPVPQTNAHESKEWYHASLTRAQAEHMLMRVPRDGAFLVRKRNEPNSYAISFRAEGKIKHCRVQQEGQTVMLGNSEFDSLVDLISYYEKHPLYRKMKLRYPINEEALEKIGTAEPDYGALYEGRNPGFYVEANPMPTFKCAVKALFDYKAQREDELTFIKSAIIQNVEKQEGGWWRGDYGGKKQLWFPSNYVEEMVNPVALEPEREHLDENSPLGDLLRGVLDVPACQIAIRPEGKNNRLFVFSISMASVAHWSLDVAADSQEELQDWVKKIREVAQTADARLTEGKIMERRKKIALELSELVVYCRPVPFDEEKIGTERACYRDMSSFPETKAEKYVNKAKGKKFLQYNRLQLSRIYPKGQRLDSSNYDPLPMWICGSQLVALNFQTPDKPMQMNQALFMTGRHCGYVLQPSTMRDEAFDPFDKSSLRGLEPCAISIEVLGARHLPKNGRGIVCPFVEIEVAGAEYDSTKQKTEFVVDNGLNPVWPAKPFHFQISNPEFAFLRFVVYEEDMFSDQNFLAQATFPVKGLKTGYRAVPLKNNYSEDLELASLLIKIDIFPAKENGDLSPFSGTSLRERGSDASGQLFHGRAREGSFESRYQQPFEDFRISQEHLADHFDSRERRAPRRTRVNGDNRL

By IC50 is commonly meant the midpoint of a concentration-inhibition curve. As usually defined, the CC50 is the concentration that lowers cell viability or growth by half. With `O=C(O)c1ccc(NC2=C/C(=N/S(=O)(=O)c3ccccc3)c3ccccc3C2=O)cc1`, the IC50 is 4.5 µM (active) in test [1], 2.74 µM (active) in [3], 45.5 µM (inactive) in [4] and 10.1 µM (active) in [5]. In [2], the CC50 was 31.4 µM (active).

Usually EC50 stands for the concentration at which the effect is half-maximal. In the case of `Nc1ccc2c(c1)C(=O)C(=O)c1ccccc1-2`, the EC50 was 2.58 µM (inconclusive) in test [6], 3.12 µM (inconclusive) in [7] and 6.36 µM (active) in test [9]. For the same compound, the CC50 in test [8] was 7.59 µM (active). In addition, the IC50 is 5.14 µM (active) in test [4] and 1.56 µM (active) in test [5].

Take `COC(=O)[C@@H]1[C@@H](C(=O)OC)C2(c3ccccc3-c3ccccc32)N(c2ccc(Cl)cc2)N1C#N`: the EC50 was 6.87 µM (active) in test [10], 2.87 µM (inconclusive) in test [6], 5.02 µM (active) in [7] and 5.38 µM (active) in [9]. The IC50 in test [3] is 20.4 µM (inactive).

As to `CCCC(=O)NC(c1ccccc1OC)c1ccc2cccnc2c1O` (stereo not drawn), the EC50 in [10] was 1.55 µM (active).

Regarding `COc1ccc(OC)c(Nc2cc3ccccc3c(O)n2)c1`, in [1], the IC50 was 1.88 µM (active). In test [9], the EC50 is 1.34 µM (active).

For the compound `Cc1ccc2nc(/C(C#N)=C\c3ccc([N+](=O)[O-])o3)[nH]c2c1`, the EC50 in [9] is 0.454 µM (active).

Consider `COC(CNC(=O)c1ccc2c3c(onc13)-c1ccccc1C2=O)OC`, for which the results for the CC50 in [2] and in test [8] were 20.4 µM (active) and 15.1 µM (active), respectively. Moreover, the concentration giving a half-maximal response (EC50) in test [9] is 5.99 µM (active).

Source of the values: ChEMBL document CHEMBL1201862, “PubChem BioAssay data set” (2004).
